Measurements taken from ChEMBL document CHEMBL1201862, “PubChem BioAssay data set” (2004).
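A five-concentration, 48-hour dose response in 96-well plates underlies each endpoint, interpolated linearly between surrounding concentrations. At the GI50, growth is halved.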 Calls of active or inactive are those of the source. Cut-off read from the data, not from the text of the source: active = GI50 up to about 1.1 µM and inactive = higher.

How the values were obtained:
Assay in all cases: DTP human tumour cell line panel, 48 h
BT-549 = tested on: BT-549
OVCAR-8 = tested on: OVCAR-8
TK-10 = tested on: TK-10
IGROV-1 = tested on: IGROV-1
HT-29 = tested on: HT-29
CAKI-1 = tested on: CAKI-1
EKVX = tested on: EKVX
UO-31 = tested on: UO-31
U-251 = tested on: U-251
UACC-257 = tested on: UACC-257
MDA-MB-231 = tested on: MDA-MB-231
ACHN = tested on: ACHN
SK-MEL-2 = tested on: SK-MEL-2
SF-268 = tested on: SF-268
T47D = tested on: T47D
SK-MEL-5 = tested on: SK-MEL-5
SNB-75 = tested on: SNB-75
OVCAR-3 = tested on: OVCAR-3
MDA-MB-435 = tested on: MDA-MB-435
M14 = tested on: M14
KM12 = tested on: KM12
SK-OV-3 = tested on: SK-OV-3
K562 = tested on: K562
HCT-15 = tested on: HCT-15
RXF 393 = tested on: RXF 393
786-0 = tested on: 786-0
MCF7 = tested on: MCF7
SK-MEL-28 = tested on: SK-MEL-28
OVCAR-4 = tested on: OVCAR-4
NCI-H23 = tested on: NCI-H23
HCC 2998 = tested on: HCC 2998
MDA-N = tested on: MDA-N
NCI/ADR-RES = tested on: NCI/ADR-RES
SW-620 = tested on: SW-620
HOP-62 = tested on: HOP-62
LOX IMVI = tested on: LOX IMVI
MOLT-4 = tested on: MOLT-4
UACC-62 = tested on: UACC-62
RPMI-8226 = tested on: RPMI-8226
HCT-116 = tested on: HCT-116
Malme-3M = tested on: Malme-3M
A549 = tested on: A549
PC-3 = tested on: PC-3
COLO 205 = tested on: COLO 205
NCI-H522 = tested on: NCI-H522
HOP-92 = tested on: HOP-92
SF-295 = tested on: SF-295
CCRF-CEM = tested on: CCRF-CEM
Hs-578T = tested on: Hs-578T
SN12C = tested on: SN12C
DU-145 = tested on: DU-145
A498 = tested on: A498
SR = tested on: SR
NCI-H460 = tested on: NCI-H460
OVCAR-5 = tested on: OVCAR-5
SNB-19 = tested on: SNB-19
NCI-H226 = tested on: NCI-H226
SF-539 = tested on: SF-539

`CC(=O)OC(C#N)CC(C)(C)/[N+]([O-])=[N+](\[O-])C(C)(C)CC(C#N)OC(C)=O` (stereo unspecified) was tested, and the GI50 (BT-549) was 14.8 µM (inactive), the GI50 (OVCAR-8) was 16.1 µM (inactive) and the GI50 (TK-10) was 15.9 µM (inactive). For the same compound, the GI50 (IGROV-1) was 10.8 µM (inactive), the GI50 (HT-29) was 18.4 µM (inactive) and the GI50 (CAKI-1) was 15 µM (inactive). The GI50 (EKVX) was 16.7 µM (inactive), the GI50 (UO-31) was 19.5 µM (inactive) and the GI50 (U-251) was 15.8 µM (inactive). For the same compound, the GI50 (UACC-257) was 16.9 µM (inactive), the GI50 (MDA-MB-231) was 14.7 µM (inactive) and the GI50 (ACHN) was 12.1 µM (inactive). The GI50 (SK-MEL-2) was 24.3 µM (inactive), the GI50 (SF-268) was 10.8 µM (inactive) and the GI50 (T47D) was 15.5 µM (inactive). For the same compound, the GI50 (SK-MEL-5) was 16.1 µM (inactive), the GI50 (SNB-75) was 15.1 µM (inactive) and the GI50 (OVCAR-3) was 16.6 µM (inactive). The GI50 (MDA-MB-435) was 16.1 µM (inactive), the GI50 (M14) was 14.4 µM (inactive) and the GI50 (KM12) was 14.5 µM (inactive). The GI50 (SK-OV-3) was > 100 µM (inactive), the GI50 (K562) was 3.77 µM (inactive) and the GI50 (HCT-15) was 10.6 µM. For the same compound, the GI50 (RXF 393) was 12.8 µM (inactive), the GI50 (786-0) was 10.6 µM (inactive) and the GI50 (MCF7) was 8.83 µM (inactive). The GI50 (SK-MEL-28) was 26 µM (inactive), the GI50 (OVCAR-4) was 17.6 µM (inactive) and the GI50 (NCI-H23) was 17 µM (inactive). For the same compound, the GI50 (HCC 2998) was 16.1 µM (inactive), the GI50 (MDA-N) was 14.3 µM (inactive) and the GI50 (NCI/ADR-RES) was 22.4 µM (inactive). For the same compound, the GI50 (SW-620) was 5.47 µM (inactive), the GI50 (HOP-62) was 17.8 µM (inactive) and the GI50 (LOX IMVI) was 11.1 µM (inactive). For the same compound, the GI50 (MOLT-4) was 3.24 µM (inactive), the GI50 (UACC-62) was 16.7 µM (inactive) and the GI50 (RPMI-8226) was 15.8 µM (inactive). The GI50 (HCT-116) was 6.7 µM (inactive), the GI50 (Malme-3M) was 18.5 µM (inactive) and the GI50 (A549) was 30.1 µM (inactive). For the same compound, the GI50 (PC-3) was 15.3 µM (inactive), the GI50 (COLO 205) was 15.7 µM (inactive) and the GI50 (NCI-H522) was 8.47 µM (inactive). The GI50 (HOP-92) was 12.3 µM (inactive), the GI50 (SF-295) was 38.3 µM (inactive) and the GI50 (CCRF-CEM) was 1.73 µM (inactive). For the same compound, the GI50 (Hs-578T) was 17.3 µM (inactive), the GI50 (SN12C) was 12.9 µM (inactive) and the GI50 (DU-145) was 18 µM (inactive). For the same compound, the GI50 (A498) was 44.6 µM (inactive), the GI50 (SR) was 2.41 µM (inactive) and the GI50 (NCI-H460) was 18 µM (inactive). The GI50 (OVCAR-5) was 23 µM (inactive), the GI50 (SNB-19) was 23.1 µM (inactive) and the GI50 (NCI-H226) was 20.7 µM (inactive).

For `Nc1nc(O)c2ncn(C3C=CC(CO)O3)c2n1` (stereo unspecified), the GI50 (BT-549) was > 100 µM (inactive), the GI50 (OVCAR-8) was > 100 µM (inactive) and the GI50 (TK-10) was > 100 µM (inactive). For the same compound, the GI50 (HT-29) was > 100 µM (inactive), the GI50 (CAKI-1) was > 100 µM (inactive) and the GI50 (UO-31) was > 100 µM (inactive). For the same compound, the GI50 (U-251) was > 100 µM (inactive), the GI50 (UACC-257) was > 100 µM (inactive) and the GI50 (MDA-MB-231) was > 100 µM (inactive). The GI50 (SK-MEL-2) was > 100 µM (inactive), the GI50 (T47D) was > 100 µM (inactive) and the GI50 (SK-MEL-5) was > 100 µM (inactive). For the same compound, the GI50 (SNB-75) was > 100 µM (inactive), the GI50 (OVCAR-3) was > 100 µM (inactive) and the GI50 (MDA-MB-435) was > 100 µM (inactive). For the same compound, the GI50 (M14) was > 100 µM (inactive), the GI50 (KM12) was > 100 µM (inactive) and the GI50 (HCT-15) was over 100 µM. The GI50 (RXF 393) was > 100 µM (inactive), the GI50 (MCF7) was 75.2 µM (inactive) and the GI50 (SK-MEL-28) was > 100 µM (inactive). For the same compound, the GI50 (OVCAR-4) was > 100 µM (inactive), the GI50 (NCI-H23) was > 100 µM (inactive) and the GI50 (MDA-N) was > 100 µM (inactive). The GI50 (NCI/ADR-RES) was > 100 µM (inactive), the GI50 (SW-620) was > 100 µM (inactive) and the GI50 (HOP-62) was > 100 µM (inactive). The GI50 (LOX IMVI) was > 100 µM (inactive), the GI50 (MOLT-4) was > 100 µM (inactive) and the GI50 (RPMI-8226) was > 100 µM (inactive). For the same compound, the GI50 (HCT-116) was > 100 µM (inactive), the GI50 (Malme-3M) was > 100 µM (inactive) and the GI50 (PC-3) was > 100 µM (inactive). The GI50 (COLO 205) was > 100 µM (inactive), the GI50 (HOP-92) was > 100 µM (inactive) and the GI50 (SF-295) was > 100 µM (inactive). For the same compound, the GI50 (CCRF-CEM) was 11.1 µM (inactive), the GI50 (Hs-578T) was > 100 µM (inactive) and the GI50 (SN12C) was > 100 µM (inactive). The GI50 (DU-145) was > 100 µM (inactive), the GI50 (A498) was > 100 µM (inactive) and the GI50 (SR) was > 100 µM (inactive). The GI50 (NCI-H460) was > 100 µM (inactive), the GI50 (OVCAR-5) was > 100 µM (inactive) and the GI50 (SNB-19) was > 100 µM (inactive). For the same compound, the GI50 (NCI-H226) was > 100 µM (inactive).

`COc1cc2c(cc1OCCN1C(=O)c3cccc4cccc(c34)C1=O)N=C[C@@H]1CCCN1C2=O` was tested, and the GI50 (BT-549) was 9.82 µM (inactive), the GI50 (OVCAR-8) was 8.57 µM (inactive) and the GI50 (SF-539) was 9.12 µM (inactive). For the same compound, the GI50 (TK-10) was 8.05 µM (inactive), the GI50 (IGROV-1) was 3.11 µM (inactive) and the GI50 (HT-29) was 9.46 µM (inactive). For the same compound, the GI50 (CAKI-1) was 7.5 µM (inactive), the GI50 (EKVX) was 9.68 µM (inactive) and the GI50 (UO-31) was 8.87 µM (inactive). For the same compound, the GI50 (U-251) was 6.15 µM (inactive), the GI50 (UACC-257) was 9.44 µM (inactive) and the GI50 (MDA-MB-231) was 7.41 µM (inactive). The GI50 (ACHN) was 8.07 µM (inactive), the GI50 (SK-MEL-2) was 7.29 µM (inactive) and the GI50 (SF-268) was 7.74 µM (inactive). The GI50 (T47D) was 9.35 µM (inactive), the GI50 (SK-MEL-5) was 8.61 µM (inactive) and the GI50 (SNB-75) was 13.3 µM (inactive). For the same compound, the GI50 (OVCAR-3) was 6.68 µM (inactive), the GI50 (MDA-MB-435) was 10.7 µM (inactive) and the GI50 (M14) was 8.34 µM (inactive). The GI50 (KM12) was 14.3 µM (inactive), the GI50 (SK-OV-3) was 24.3 µM (inactive) and the GI50 (K562) was 1.15 µM (inactive). For the same compound, the GI50 (HCT-15) was 9.31 µM, the GI50 (RXF 393) was 7.8 µM (inactive) and the GI50 (786-0) was 7.96 µM (inactive). The GI50 (MCF7) was 6.59 µM (inactive), the GI50 (SK-MEL-28) was 8.95 µM (inactive) and the GI50 (OVCAR-4) was 16 µM (inactive). For the same compound, the GI50 (NCI-H23) was 10.4 µM (inactive), the GI50 (HCC 2998) was 7.74 µM (inactive) and the GI50 (MDA-N) was 8.02 µM (inactive). For the same compound, the GI50 (NCI/ADR-RES) was 15.8 µM (inactive), the GI50 (SW-620) was 7.66 µM (inactive) and the GI50 (HOP-62) was 21.5 µM (inactive). For the same compound, the GI50 (LOX IMVI) was 6.04 µM (inactive), the GI50 (MOLT-4) was 1.01 µM (active) and the GI50 (UACC-62) was 7.93 µM (inactive). The GI50 (RPMI-8226) was 9.27 µM (inactive), the GI50 (HCT-116) was 7.66 µM (inactive) and the GI50 (Malme-3M) was 8.02 µM (inactive). The GI50 (A549) was 8.65 µM (inactive), the GI50 (PC-3) was 7.08 µM (inactive) and the GI50 (COLO 205) was 8.32 µM (inactive). The GI50 (NCI-H522) was 1.17 µM (inactive), the GI50 (HOP-92) was 7.76 µM (inactive) and the GI50 (SF-295) was 13.7 µM (inactive). For the same compound, the GI50 (CCRF-CEM) was 0.236 µM (active), the GI50 (Hs-578T) was 7.8 µM (inactive) and the GI50 (SN12C) was 7.93 µM (inactive). For the same compound, the GI50 (DU-145) was 8.89 µM (inactive), the GI50 (A498) was 9.04 µM (inactive) and the GI50 (SR) was > 100 µM (inactive). The GI50 (NCI-H460) was 5.89 µM (inactive), the GI50 (OVCAR-5) was 10.9 µM (inactive) and the GI50 (SNB-19) was 12.4 µM (inactive). The GI50 (NCI-H226) was 7.26 µM (inactive).
